Measured values: PubChem BioAssay AID489040 (Sanford-Burnham Center for Chemical Genomics, 2010)
The source made the active and inactive calls.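 How the source made its calls: active means mean half-maximal activating concentration from the dose-response fit at or below a set limit; inactive means the rest.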

Target: CHO-XBP1 luciferase reporter, IRE1-XBP1 UPR activation
Test: activators of IRE1-XBP1 UPR arm, dose response, counter-screen for apoptotic UPR arm activators, CHO-XBP1 cells, luminescence (AID 489040);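 further: reporter read after six hours of compound exposure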

SMILES | EC50
CCOC(=O)C(CC)(CC)C(=O)/C=C/c1cccc(Br)c1 | > 80 µM (inactive)
Cc1ccc(-c2nc(NC(=O)c3nn(C)cc3[N+](=O)[O-])sc2C)cc1C | > 80 µM (inactive)
O=C(CCl)c1ccc(Cc2ncc(C(F)(F)F)cc2Cl)s1 | > 80 µM (inactive)
O=C(Oc1c(CN2CCOCC2)cc(Cl)c2cccnc12)c1ccc(F)cc1 | > 80 µM (inactive)
COc1cc(SC#N)ccc1N=Cc1c(C)[nH]n(-c2ccc(Cl)cc2)c1=O | 15.9 µM
COc1cc2nc(=S)n3[nH]c(CCn4nc(C)cc4C)nc3c2cc1OC | > 80 µM (inactive)
Cc1cc(C)nc(SCc2ccc(C(=O)N/N=C/c3cccc(O)c3O)cc2)n1 | > 80 µM (inactive)
C/C(=N\NC(=O)c1cc(Br)ccc1O)c1ccccn1 | > 80 µM (inactive)
COc1ccc(-c2cc(C(F)F)n3ncc(C(=O)n4ccnc4C)c3n2)cc1 | > 80 µM (inactive)
O=[N+]([O-])c1ccccc1S(=O)(=O)Nc1cccc2cccnc12 | > 80 µM (inactive)
CCN1CSC(=S)N(Cc2ccccc2)C1 | > 80 µM (inactive)
Cc1noc2ncnc(Sc3ccc(Br)cc3)c12 | > 80 µM (inactive)
Cc1ccc(Sc2ccc(/C=C3/C(=O)NN(c4ccccc4)C3=O)o2)cc1 | > 80 µM (inactive)
Cc1ccc(-c2nn3c(C)nnc3s2)cc1NC(=O)c1ccc(-c2ccc(Cl)cc2Cl)o1 | 15.9 µM
O=C(/C(=C/c1ccc(Cl)cc1)c1nc2ccccc2[nH]1)c1ccccc1 | > 80 µM (inactive)
COc1ccc(CCN2CCC(Nc3nc4ccccc4n3Cc3ccc(F)cc3)CC2)cc1 | > 80 µM (inactive)
O=[N+]([O-])c1ccc2nc(Cl)nc(-c3ccccc3)c2c1 | > 80 µM (inactive)
Cc1cc(C(=O)CCl)c(C)n1CCc1ccc(F)cc1 | > 80 µM (inactive)
COc1cccc(N=Nc2ccc3cccnc3c2O)c1 | > 80 µM (inactive)
COC(=O)Oc1ccc(/C=C/C(=O)OC(C)C)cc1OC(=O)OC | > 80 µM (inactive)
C/C(CCC12CC3CC(CC(C3)C1)C2)=N\NC(N)=S | > 80 µM (inactive)
O=C(CSc1ccc2ccccc2c1)NCCc1ccc(O)c(O)c1 | > 80 µM (inactive)
COC(=O)C1=C(C)N(c2ccc(C)c(C)c2)/C(=C/c2cccs2)C1=O | > 80 µM (inactive)
O=c1[nH]c(-c2ccc(-c3cccc(Cl)c3)o2)nc2ccccc12 | 15 µM

SMILES | EC50
O=C(Cn1cc(/C=C\[N+](=O)[O-])c2ccccc21)Nc1ccccc1 | > 80 µM (inactive)
CCc1cc2c(=O)c(-c3cnn(-c4ccccc4)c3)c(C)oc2cc1OCC(=O)Nc1cccc(C)c1 | inactive
O=C(Nc1ccc(S(=O)(=O)N2CCOCC2)cc1)c1ccc([N+](=O)[O-])o1 | > 80 µM (inactive)
Oc1ccc(-c2csc(Nc3cccc4ccccc34)n2)cc1O | > 80 µM (inactive)
CC(C)(C)C(=O)NC(=S)NNC(=O)c1ccc(-c2ccccc2)cc1 | 9.6 µM
O=C(NCc1cccnc1)/C(=C\c1ccc(-c2ccc(Br)cc2)o1)S(=O)(=O)c1ccccc1 | > 80 µM (inactive)
C[C@@H]1CN([C@H](C)CO)C(=O)c2cc(NC(=O)Nc3ccc(C(F)(F)F)cc3)ccc2O[C@H]1CN(C)Cc1ccc(Cl)c(Cl)c1 | > 80 µM (inactive)
CCOC(=O)c1c(NC(C)=O)sc2c1CCC(C=O)=C2Sc1ccccc1 | > 80 µM (inactive)
Clc1ccc(-c2ccc(/C=N/Nc3nncc(-c4ccccc4)n3)o2)cc1 | inactive
O=[N+]([O-])c1ccc(C=Nc2ccc(Cl)c([N+](=O)[O-])c2)s1 | > 80 µM (inactive)
O=C(CSc1ccccn1)Nc1nonc1[N+](=O)[O-] | > 80 µM (inactive)
O=C1C(CSCc2ccccc2)NC(=S)N1c1ccccc1 (stereo not given) | > 80 µM (inactive)
Cc1ccc(CN2CCN(/N=C/c3ccc(O)c(O)c3)CC2)cc1 | > 80 µM (inactive)
CNC[C@@H](Cc1ccccc1)NC[C@@H](CC1CCCCC1)NCCCc1ccccc1 | > 80 µM (inactive)
CCCCC(CC)CN=C(N)NC(N)=NCCCCCCN=C(N)NC(N)=NCC(CC)CCCC (stereo not given) | > 80 µM (inactive)
O=c1nc(Nc2cccc(Cl)c2)oc2cc(Cl)oc(=O)c12 | > 80 µM (inactive)
Cc1cccc(C)c1NC(=O)c1nc(S(=O)(=O)Cc2ccccc2)ncc1Cl | > 80 µM (inactive)
O=C1NN(c2cccc(Br)c2)C(=O)/C1=C/c1cccs1 | 8.89 µM
Nc1cccc(-c2nc3cc(S(=O)(=O)c4ccc5oc(-c6cccc(N)c6)nc5c4)ccc3o2)c1 | > 80 µM (inactive)
Cn1c(SCC(=O)NCC2CCCO2)ncc(C(=O)Nc2ccc(Cl)cc2)c1=O (stereo not given) | > 80 µM (inactive)
COc1ccc(NC(=O)C(=O)N/N=C\c2ccc(CNC(=O)C(=O)Nc3ccc(C)c(C)c3)o2)c(OC)c1 | > 80 µM (inactive)
C/C(=N\NC(=O)COc1ccccc1-c1ccccc1)c1ccccn1 | > 80 µM (inactive)
FC(F)(F)c1nnc(-c2ccccc2)nc1Sc1ccccc1 | > 80 µM (inactive)
Oc1c(Cl)cc(CN2CCOCC2)c2cccnc12 | > 80 µM (inactive)

SMILES | EC50
O=C(CCN1C(=O)/C(=C\c2ccccc2F)SC1=S)N1CCCCC1 | > 80 µM (inactive)
O=C(Nc1cccc(-c2nc3cccnc3s2)c1)C1c2ccccc2Oc2ccccc21 | 5.58 µM
O=C(Nc1ccc(-c2nc3ncccc3o2)cc1)c1ccc([N+](=O)[O-])o1 | > 80 µM (inactive)
Cc1nc([N+](=O)[O-])c(Br)n1CC(=O)c1ccc(Br)cc1 | > 80 µM (inactive)
COc1ccc2[nH]cc(C(=O)CCl)c2c1 | > 80 µM (inactive)
O=C(NC1CCCC1)C(c1ccc(F)cc1)N(Cc1ccc(F)cc1)C(=O)CCl (stereo not given) | > 80 µM (inactive)
Oc1ccc(-c2cn3ccccc3n2)cc1O | > 80 µM (inactive)
Cc1ccnc(Nc2nc(-c3ccc(O)c(O)c3)cs2)c1 | > 80 µM (inactive)
O=C(COC(=O)c1ccccc1C(=O)c1ccc(Cl)c([N+](=O)[O-])c1)NC1CCCCCC1 | > 80 µM (inactive)
Cn1c2ccccc2c2cc(/C=N/NC(=O)c3cc(O)ccc3O)ccc21 | > 80 µM (inactive)
Oc1ccc(/C=N/N2CCN(C3c4ccccc4-c4ccccc43)CC2)cc1O | 18.8 µM
Cc1c(NC(=O)CSc2cccc3cccnc23)c(=O)n(-c2ccccc2)n1C | > 80 µM (inactive)
COc1ccc2cc(C)c3nnc(SCC(=O)Nc4nc(-c5ccc(F)cc5)cs4)n3c2c1 | inactive
COc1cc(/C=C/[N+](=O)[O-])ccc1O | > 80 µM (inactive)
O=C(/C(=C\c1ccccc1)c1nc2ccccc2[nH]1)c1ccc(Cl)cc1 | > 80 µM (inactive)
CCOC(=O)c1c(C)oc2c1c(C(c1cccnc1)N1CCOCC1)c(O)c1ccccc12 (stereo not given) | > 80 µM (inactive)
O=C(Nc1ccc(C(F)(F)F)cc1)c1cc(-c2cccnc2)nc2ccc(Br)cc12 | 6.29 µM
Cc1ccc(NC(=O)COc2ccc(/C=C3/SC(=Nc4ccccc4)N(Cc4cccnc4)C3=O)cc2)cc1 | inactive
O=S(=O)(c1ccc(Cl)cc1)c1snnc1-c1ccccc1 | > 80 µM (inactive)
Cc1ccccc1/C=C/C(=O)c1ccc([N+](=O)[O-])o1 | > 80 µM (inactive)
C/C(=N\NC(=O)c1cccc2ccccc12)c1ccccn1 | > 80 µM (inactive)
Cc1nn(-c2ccccc2)c(C)c1/C=N/NC(=O)CSc1nc2ccccc2c(=O)n1-c1ccc(Br)cc1 | 9.09 µM
